From patent US5878747A, “Condom coated with acidic polysaccharides” (Fuji Latex Co., Ltd., priority 1993, dated 1999)

Test system: AMV (avian myeloblastosis virus) reverse transcriptase
Assay: AMV reverse transcriptase inhibition ([3H]dTTP incorporation)
Type: biochemical
Details: 1 Inhibition unit = activity which inhibits 1 unit of reverse transcriptase activity to 50%
Procedure: 1 unit of AMV (avian myeloblastosis virus) reverse transcriptase was mixed with 50 μl of a mixture (50 mM tris hydrochloride, pH 8.4, 2 mM dithiothreitol, 100 mM KCl, 10 mM MgCl2, 0.1% triton X-100, 50 μg poly (rA)-oligo (dT)/ml, 1.25 μCi [^3 H] dTTP (57 Ci/mmol)) and with various concentration of various sulfated polysaccharides.
The reaction mixtures were incubated and stopped by the addition of 5% trichloroacetic acid. Precipitates were collected on glass fiber filters and their radio activities were determined by a liquid scintilation counter.
1 Inhibition unit is defined as an activity which inhibits 1 unit of reverse transcriptase activity to 50%.

Substance	Inhibition Unit/mg
Dermatan sulfate	210 Inhibition Unit/mg
l-Carrageenan	35810 Inhibition Unit/mg
Heparin	830 Inhibition Unit/mg
Heparan sulfate	50 Inhibition Unit/mg
Chondroitin sulfate	30 Inhibition Unit/mg
λ-Carrageenan	68320 Inhibition Unit/mg
Karatan sulfate	30 Inhibition Unit/mg
κ-Carrageenan	30200 Inhibition Unit/mg
